pEC50: −log10 of the molar value. Structures can show the parent of a compound that is named as a salt.
Key:
human S1P1 (EDG-1) = molecular target: T1, human S1P1 (EDG-1) (Homo sapiens, UniProt P21453); experiment: Intracellular calcium flux assay (agonist activity against S1P1 (EDG-1) receptor); type: cell-based; settings: CHO cells expressing Gqi5 and human S1P1 (EDG-1), intracellular calcium change
T1 construct: expressed in transfected cells; host or cells: CHO-K1 cells stably expressing HA-Gqi5
From the text: The HA-Gqi5 expression plasmid, which had been produced in (2) above, was integrated into CHO-K1 cells by use of a Fugene 6 reagent (product of Roche Diagnostics K.K.), and cells of interest were selected by use of hygromycin. A CHO cell expressing HA-Gqi5 was selected through western blotting employing an anti-HA antibody, and the selected cells were cloned twice.
By use of a human S1P1 (EDG-1) cDNA clone (open biosystems, cDNA collection #4071217) as a template, human S1P1 (EDG-1) DNA was produced through PCR. This PCR product was integrated into pUC118. By means of a site-directed mutagenesis kit (product of STRATAGENE), a plasmid into which DNA having a target sequence (The Journal of Biological Chemistry Vol. 265, No. 16, 9308-9313, 1990) had been integrated was produced.
A human S1P1 (EDG-1) gene (The Journal of Biological Chemistry Vol. 265, No. 16, 9308-9313, 1990) integrated into pUC118 was digested by use of restriction enzymes, and the cut fragment was purified. The fragment was ligated with an expression plasmid pcDNA3.1/mycHisA (product of Invitrogen). The ligation mixture was integrated into E. Coli DH5α, and a positive clone was selected, whereby a S1P1 (EDG-1) expression plasmid was produced.
A S1P1 (EDG-1) expression plasmid was integrated into the CHO cells expressing HA-Gqi5, which had been produced in (3) above, by use of a Fugene 6 reagent (product of Roche Diagnostics K.K.). […] The selected cells were cloned twice.
CHO cells expressing Gqi5 protein, to which human S1P1 (EDG-1) had been introduced and which had been produced in (6) above, were seeded on a 96-well black plate with a transparent bottom surface (2.5×10^4 cell/well) and cultured overnight. The culture was washed once with a serum-free medium, and an assay buffer (calcium assay kit, product of Molecular Devices, 100 μL) containing 2.5 mM probenicid and 0.25% fatty acid-free BSA was added to the washed cells. The mixture was allowed to react at 37° C. for one hour under […] CO2. Separately, each test compound was diluted so as to attain a concentration five times the final test concentration. The diluted liquid (25 μL) was added to each well, and change in intracellular calcium concentration was measured by means of a FLEXstation II (product of Molecular Devices). The change was determined as the difference between the minimum intracellular calcium level and the peak (maximum) value thereof. A sigmoid curve was obtained from the measurements, and an EC50 value was calculated from the curve so as to evaluate agonist activity against an S1P1 (EDG-1) receptor.

[1] = tested on: lymphocytes in peripheral blood; experiment: Decrease in peripheral blood lymphocyte count of mice after administration of each compound; type: in vivo; settings: four hours after administration, peripheral blood lymphocyte count vs solvent group; for T/C(%) (3 mg/kg): 3 mg/kg peroral; for T/C(%) (10 mg/kg): 10 mg/kg peroral
Experimental: 2. In Vivo Evaluation of Test Substances (Decrease in Peripheral Blood Lymphocyte Count of Mice after Administration of Each Compound):
There has already been reported that lymphocytes in peripheral blood of mice decrease after administration of an S1P receptor agonist [SCIENCE, 296, 346-349 (2002)]. According to the evaluation method disclosed in the document, test compounds were evaluated.
Four hours after peroral administration, blood (0.5 mL) was collected from each mouse through the posterior vena cava under anesthesia with ether by use of EDTA as an anti-coagulant. The number of lymphocytes in peripheral blood was determined by means of a general hematological tester ADVIA 120 (Bayer Medical). The pharmacological action of each test drug was evaluated as T/C (%) ratio, which is a ratio of average peripheral blood lymphocyte count of a test drug-administered group to that of the solvent-administered group (control group).
(§1) T/C(%)=(average peripheral blood lymphocyte count of a test drug-administered group)/(average peripheral blood lymphocyte count of the solvent-administered group)×100

blood lymphocytes = settings: phosphorylated in the living body, acts as S1P receptor agonist; cited from earlier work
[2] = clinically tested in transplant and multiple sclerosis; cited from earlier work
[3] = tested on: production of cytokines such as IL-2; settings: in vitro; cited from earlier work
[4] = tested on: lymphocytes in peripheral blood; experiment: Decrease in peripheral blood lymphocyte count of rats after administration of each compound; type: in vivo; settings: rats (female Lewis), four hours after administration, peripheral blood lymphocyte count vs solvent group; for T/C(%) (3 mg/kg): 3 mg/kg peroral; for T/C(%) (10 mg/kg): 10 mg/kg peroral
Experimental: 3. In Vivo Evaluation of Test Substances (Decrease in Peripheral Blood Lymphocyte Count of Rats after Administration of Each Compound):
The effect of administration of an S1P receptor agonist on decrease in peripheral blood lymphocyte counts of rats (female Lewis) was evaluated.
Four hours after peroral administration, blood (0.5 mL) was collected from each rat through the cervical vein under anesthesia with ether by use of EDTA as an anti-coagulant. The number of lymphocytes in peripheral blood and blood cell fractions were determined by means of a general hematological tester ADVIA 120 (Bayer Medical). The action of each test drug on reducing peripheral blood lymphocyte count was evaluated as T/C (%) ratio at the time of blood collection, which is a ratio of average peripheral blood lymphocyte count of a test drug-administered group to that of the solvent-administered group (control group).
as §1

T1 sequence (P21453 whole entry): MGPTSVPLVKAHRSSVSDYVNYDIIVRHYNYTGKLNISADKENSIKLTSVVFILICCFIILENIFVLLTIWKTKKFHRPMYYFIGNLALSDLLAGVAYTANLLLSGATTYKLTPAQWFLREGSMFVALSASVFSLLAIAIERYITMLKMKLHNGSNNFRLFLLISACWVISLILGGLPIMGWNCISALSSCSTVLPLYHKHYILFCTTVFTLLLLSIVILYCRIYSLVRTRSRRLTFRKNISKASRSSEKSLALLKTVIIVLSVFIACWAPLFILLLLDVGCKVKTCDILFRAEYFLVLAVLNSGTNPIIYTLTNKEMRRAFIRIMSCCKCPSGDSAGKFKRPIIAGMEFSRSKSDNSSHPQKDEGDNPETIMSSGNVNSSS

Compound	pEC50 (human S1P1 (EDG-1); Table 2)	T/C(%) (3 mg/kg) [1]	T/C(%) (10 mg/kg) [1]	pEC50 (human S1P1 (EDG-1); Table 4)	T/C(%) (3 mg/kg) [4]	T/C(%) (10 mg/kg) [4]	other results
O=C(O)CCNCC(=O)N1CCc2cc(OCc3ccc(-c4ccccc4)c(C(F)(F)F)c3)ccc21 [Example 31, 3-[N-[2-Oxo-2-[5-[(2-trifluoromethyl-4-biphenyl)methoxy]indolin-1-yl]ethyl]amino]propionic acid]	8.20	30.8	19.8				
CCCCCCCCc1ccc(CCC(N)(CO)CO)cc1.Cl [FTY720, 2-amino-2-[2-(4-octylphenyl)ethyl]-1,3-propanediol hydrochloride]							reduction in blood lymphocytes (blood lymphocytes): induce reduction in blood lymphocytes; adverse side effect [2]: bradycardia is reported as an adverse side effect; inhibitory action on production of cytokines such as IL-2 [3]: no inhibitory action
O=C(O)CCNCC(=O)N1CCc2cc(OCc3cc(-c4ccccc4)c(C(F)(F)F)s3)ccc21 [Example 29, 3-[N-[2-Oxo-2-[5-[(4-phenyl-5-trifluoromethyl-2-thienyl)methoxy]indolin-1-yl]ethyl]amino]propionic acid]	8.62	15.5	13.9				
N[C@H](CC(=O)O)C(=O)N1CCc2cc(OCc3cc(-c4ccccc4)c(C(F)(F)F)s3)ccc21 [Example 10, (R)-3-Amino-4-oxo-4-[5-[(4-phenyl-5-trifluoromethyl-2-thienyl)methoxy]indolin-1-yl]butyric acid]	8.89	21.6	16.3				
CN[C@H](CC(=O)O)C(=O)N1CCc2c1ccc(OCc1ccc(C3CCCC3)c(C(F)(F)F)c1)c2C [Example 129, 4-[5-[(4-Cyclopentyl-3-trifluoromethylphenyl)methoxy]-4-methylindolin-1-yl]-(3R)—(N-methylamino)-4-oxobutyric acid]				8.35	18.2	17.7	
N[C@H](CC(=O)O)C(=O)N1CCc2cc(OCc3ccc(-c4ccccc4)c(C(F)(F)F)c3)ccc21 [Example 14, (R)-3-Amino-4-oxo-4-[5-[(2-trifluoromethyl-4-biphenyl)methoxy]indolin-1-yl]butyric acid]	8.36	17.0	11.1				
O=C(O)[C@@H]1CCCN(CC(=O)N2CCc3cc(OCc4cc(-c5ccccc5)c(C(F)(F)F)s4)ccc32)C1 [Example 119, 1-[2-Oxo-2-[5-[(4-phenyl-5-trifluoromethyl-2-thienyl)methoxy]indolin-1-yl]ethyl]piperidine-(3R)-carboxylic acid]				8.21	28.7	20.7	
CN[C@H](CC(=O)O)C(=O)N1CCc2cc(OCc3ccc(C4CCCCC4)cc3C(F)(F)F)ccc21 [Example 43, 4-[5-[[4-(Cyclohexyl)-2-(trifluoromethyl)phenyl]methoxy]indolin-1-yl]-(3R)-(methylamino)-4-oxobutyric acid]				8.06	34.9	25.7	
CC(C)c1ccc(COc2ccc3c(c2)CCN3C(=O)CNCCC(=O)O)cc1OC(F)(F)F [Example 97, 3-[N-[2-[5-(4-Isopropyl-3-trifluoromethoxybenzyloxy)indolin-1-yl]-2-oxoethyl]amino]propionic acid hydrochloride]				8.33	22.2	17.9	
CN(CCC(=O)O)CC(=O)N1CCc2cc(OCc3cc(-c4ccccc4)c(C(F)(F)F)s3)ccc21 [Example 30, 3-[N-Methyl-N-[2-oxo-2-[5-[(4-phenyl-5-trifluoromethyl-2-thienyl)methoxy]indolin-1-yl]ethyl]amino]propionic acid]	8.54	21.7	11.1				

Source: patent publication US20090324581A1, “HETEROARYLAMIDE LOWER CARBOXYLIC ACID DERIVATIVE” (Daiichi Sankyo company Limited, priority 2006, published 2009)
